According to ChEMBL document CHEMBL1201862, “PubChem BioAssay data set” (2004):
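In this assay, cells in 96-well plates receive the compound at five concentrations for 48 hours. Endpoints are linearly interpolated between the surrounding concentrations. Here, GI50 denotes the concentration required for 50% inhibition of growth.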 Activity calls are given as the source filed them. Rule as the data show it: active = GI50 up to about 1.1 µM and inactive = higher.

Key:
Experiment in all cases: NCI anticancer screen, dose series, 48 h
SF-539 = tested on: SF-539
HOP-62 = tested on: HOP-62
MCF7 = tested on: MCF7
T47D = tested on: T47D
IGROV-1 = tested on: IGROV-1
SNB-75 = tested on: SNB-75
SR = tested on: SR
A498 = tested on: A498
MDA-MB-435 = tested on: MDA-MB-435
OVCAR-8 = tested on: OVCAR-8
NCI-H23 = tested on: NCI-H23
HCT-15 = tested on: HCT-15
UACC-257 = tested on: UACC-257
TK-10 = tested on: TK-10
NCI-H226 = tested on: NCI-H226
SF-268 = tested on: SF-268
BT-549 = tested on: BT-549
ACHN = tested on: ACHN
HT-29 = tested on: HT-29
RXF 393 = tested on: RXF 393

Row | Compound | GI50 (SF-539) | GI50 (HOP-62) | GI50 (MCF7) | GI50 (T47D) | GI50 (IGROV-1) | GI50 (SNB-75) | GI50 (SR) | GI50 (A498) | GI50 (MDA-MB-435) | GI50 (OVCAR-8) | GI50 (NCI-H23) | GI50 (HCT-15) [µM] | GI50 (UACC-257) | GI50 (TK-10) | GI50 (NCI-H226) | GI50 (SF-268) | GI50 (BT-549) | GI50 (ACHN) | GI50 (HT-29) | GI50 (RXF 393)
1 | O=c1[nH]c2ccccc2c(=O)n1/N=C/c1ccc(O)cc1 | 66.5 µM (inactive) | 20.9 µM (inactive) | > 100 µM (inactive) | > 100 µM (inactive) | > 100 µM (inactive) | 41.4 µM (inactive) | > 100 µM (inactive) | > 100 µM (inactive) | > 100 µM (inactive) | 48.2 µM (inactive) | > 100 µM (inactive) | > 100 | > 100 µM (inactive) | > 100 µM (inactive) | > 100 µM (inactive) | 42.2 µM (inactive) | 64.3 µM (inactive) | > 100 µM (inactive) | > 100 µM (inactive) | 
2 | Oc1ccc2ccccc2c1CN(Cc1c(O)ccc2ccccc12)C1CCCCC1 | 16 µM (inactive) | 29.7 µM (inactive) | 15.5 µM (inactive) | 31.9 µM (inactive) | 11.8 µM (inactive) | 21.8 µM (inactive) | 21.3 µM (inactive) | 27 µM (inactive) | 19.2 µM (inactive) | 21.3 µM (inactive) | 17.1 µM (inactive) | 20.6 | 15.3 µM (inactive) | 17.3 µM (inactive) |  | 14.1 µM (inactive) | 19.8 µM (inactive) | 18.3 µM (inactive) | 21.6 µM (inactive) | 18.2 µM (inactive)
3 | Oc1ccccc1CNCc1ccccc1O | 56.1 µM (inactive) | > 100 µM (inactive) | > 100 µM (inactive) | > 100 µM (inactive) | > 100 µM (inactive) | > 100 µM (inactive) |  | > 100 µM (inactive) | 54.3 µM (inactive) | > 100 µM (inactive) | > 100 µM (inactive) | > 100 | > 100 µM (inactive) | > 100 µM (inactive) | > 100 µM (inactive) | > 100 µM (inactive) | > 100 µM (inactive) | > 100 µM (inactive) | > 100 µM (inactive) | > 100 µM (inactive)
4 | CC(O)C1OC(O)C2OC(C)(C)OC12 (configuration not stated) | > 100 µM (inactive) | > 100 µM (inactive) | > 100 µM (inactive) | > 100 µM (inactive) | > 100 µM (inactive) | > 100 µM (inactive) | > 100 µM (inactive) | > 100 µM (inactive) | > 100 µM (inactive) | > 100 µM (inactive) | > 100 µM (inactive) | > 100 | > 100 µM (inactive) | > 100 µM (inactive) | > 100 µM (inactive) | > 100 µM (inactive) | > 100 µM (inactive) | > 100 µM (inactive) | > 100 µM (inactive) | 
5 | CC(NNC(=O)c1ccncc1)c1ccc(F)cc1 (configuration not stated) | > 100 µM (inactive) | > 100 µM (inactive) | > 100 µM (inactive) | > 100 µM (inactive) | > 100 µM (inactive) | > 100 µM (inactive) |  | > 100 µM (inactive) | > 100 µM (inactive) | > 100 µM (inactive) | > 100 µM (inactive) | > 100 | > 100 µM (inactive) | > 100 µM (inactive) | > 100 µM (inactive) | > 100 µM (inactive) | > 100 µM (inactive) | > 100 µM (inactive) | > 100 µM (inactive) | > 100 µM (inactive)
6 | O=C1c2cc(Br)ccc2-c2ccc3c4ccc5c6c(ccc(c7ccc1c2c73)c64)C(=O)c1cc(Br)ccc1-5 | > 100 µM (inactive) | > 100 µM (inactive) | > 100 µM (inactive) | > 100 µM (inactive) | > 100 µM (inactive) |  | 2.28 µM (inactive) | > 100 µM (inactive) | > 100 µM (inactive) | > 100 µM (inactive) | > 100 µM (inactive) | > 100 | > 100 µM (inactive) | > 100 µM (inactive) | > 100 µM (inactive) | > 100 µM (inactive) | > 100 µM (inactive) | > 100 µM (inactive) | > 100 µM (inactive) | > 100 µM (inactive)
7 | O=C(O)c1cncc(C(=O)O)c1 | > 100 µM (inactive) | > 100 µM (inactive) | > 100 µM (inactive) | > 100 µM (inactive) | > 100 µM (inactive) | > 100 µM (inactive) |  | > 100 µM (inactive) | > 100 µM (inactive) | > 100 µM (inactive) | > 100 µM (inactive) | > 100 | > 100 µM (inactive) | > 100 µM (inactive) | > 100 µM (inactive) | > 100 µM (inactive) | > 100 µM (inactive) | > 100 µM (inactive) | > 100 µM (inactive) | > 100 µM (inactive)
8 | O=C1N[C@@H]2O[C@H](CNC(=O)c3cc(Br)c[nH]3)C[C@]2(O)N1.O=C1N[C@H]2O[C@H](CNC(=O)c3cc(Br)c[nH]3)C[C@@]2(O)N1 | > 100 µM (inactive) | > 100 µM (inactive) | > 100 µM (inactive) | > 100 µM (inactive) | > 100 µM (inactive) | > 100 µM (inactive) | 0.379 µM (active) | > 100 µM (inactive) | > 100 µM (inactive) | > 100 µM (inactive) | > 100 µM (inactive) | > 100 | > 100 µM (inactive) | > 100 µM (inactive) | > 100 µM (inactive) | > 100 µM (inactive) | > 100 µM (inactive) | > 100 µM (inactive) | > 100 µM (inactive) | 
9 | C1=C(c2ccccc2)SC=C(c2ccccc2)S1 | 31.7 µM (inactive) | > 100 µM (inactive) | 16.9 µM (inactive) | 53.3 µM (inactive) | 19.9 µM (inactive) | 1.68 µM (inactive) |  | 17.9 µM (inactive) | 5.48 µM (inactive) | 44.8 µM (inactive) | 72.8 µM (inactive) | 26.2 | 57.7 µM (inactive) | 28.8 µM (inactive) | 29 µM (inactive) | 28.3 µM (inactive) | 17.9 µM (inactive) | 60.5 µM (inactive) | 24.9 µM (inactive) | 1.05 µM (active)
10 | Cn1c(=O)c2c(nc3sc4ncccc4c(=O)n32)n(C)c1=O | > 100 µM (inactive) | > 100 µM (inactive) | > 100 µM (inactive) | > 100 µM (inactive) | > 100 µM (inactive) | > 100 µM (inactive) |  | > 100 µM (inactive) | > 100 µM (inactive) | > 100 µM (inactive) | > 100 µM (inactive) | > 100 | > 100 µM (inactive) | > 100 µM (inactive) | > 100 µM (inactive) | > 100 µM (inactive) | > 100 µM (inactive) | > 100 µM (inactive) | > 100 µM (inactive) | > 100 µM (inactive)
11 | Cc1ccc(N(C)S(=O)(=O)c2ccccc2[N+](=O)[O-])cc1 | 40.1 µM (inactive) | 49.1 µM (inactive) | 49 µM (inactive) | 77.4 µM (inactive) |  |  | 47.4 µM (inactive) |  | 29.2 µM (inactive) | 48.6 µM (inactive) | 40.4 µM (inactive) | 46.7 | 41.7 µM (inactive) | > 100 µM (inactive) | 27.3 µM (inactive) | 48.4 µM (inactive) | 23.3 µM (inactive) | 58.9 µM (inactive) | 34 µM (inactive) | 34.9 µM (inactive)
12 | COC(=O)C12CCC(C(=O)OC)(Cc3c(c4ccccc4n3S(=O)(=O)c3ccccc3)C1)C2=O (configuration not stated) | > 40.6 µM (inactive) | > 100 µM (inactive) | 63.8 µM (inactive) | > 100 µM (inactive) | > 26.7 µM (inactive) | > 60.7 µM (inactive) | > 100 µM (inactive) | > 100 µM (inactive) | > 100 µM (inactive) | > 92.7 µM (inactive) | > 100 µM (inactive) | > 100 | > 64.1 µM (inactive) | > 56.2 µM (inactive) |  | > 61 µM (inactive) | > 100 µM (inactive) | > 64.1 µM (inactive) | > 46.3 µM (inactive) | 1.61 µM (inactive)
13 | CCCCC1Cc2cc(OC)ccc2-c2nc3cc(OC)ccc3n21.CCCCC1Cc2cc(OC)ccc2-c2nc3ccc(OC)cc3n21 (configuration not stated) | 16.1 µM (inactive) | 15.7 µM (inactive) | 17.2 µM (inactive) | 13.1 µM (inactive) | 11.1 µM (inactive) |  | 11.6 µM (inactive) |  | 13.2 µM (inactive) | 15.6 µM (inactive) | 14.7 µM (inactive) | 3.37 | 14.4 µM (inactive) | 18.7 µM (inactive) | 14 µM (inactive) | 17.6 µM (inactive) | 18.8 µM (inactive) | 15.2 µM (inactive) | 10.7 µM (inactive) | 17 µM (inactive)
14 | CN(C)c1ccc(/C=C2\N=C(c3ccccc3)N(/N=C3\C(=O)Nc4ccccc43)C2=O)cc1 | > 100 µM (inactive) | > 100 µM (inactive) | 35.8 µM (inactive) | 41.6 µM (inactive) | 25.9 µM (inactive) | 57.9 µM (inactive) | 27 µM (inactive) | 73.6 µM (inactive) | 20.4 µM (inactive) | 55 µM (inactive) | > 100 µM (inactive) | 61.5 | 85.3 µM (inactive) | 53.2 µM (inactive) |  | 39.6 µM (inactive) | > 100 µM (inactive) | 65.9 µM (inactive) | 53.8 µM (inactive) | 45.1 µM (inactive)
15 | O=C(NCCCCCCCCNC(=O)Nc1cccc2ccccc12)Nc1cccc2ccccc12 | 10.8 µM (inactive) | 12.8 µM (inactive) | 13.8 µM (inactive) | 24 µM (inactive) | 50.6 µM (inactive) | 35.5 µM (inactive) | > 10 µM (inactive) | 11 µM (inactive) | 17.3 µM (inactive) | 18.5 µM (inactive) | 30.4 µM (inactive) | > 100 | > 100 µM (inactive) | 43.7 µM (inactive) |  | 14.1 µM (inactive) | 31.6 µM (inactive) | 85.9 µM (inactive) | > 100 µM (inactive) | 22.6 µM (inactive)
